Values quoted from earlier work in patent publication US20220378803A1, “INJECTABLE COMPOSITIONS OF URSODEOXYCHOLIC ACID” (SHILPA MEDICARE LIMITED, priority 2019, published 2022).

C[C@H](CCC(=O)O)[C@H]1CC[C@H]2[C@@H]3[C@@H](O)C[C@@H]4C[C@H](O)CC[C@]4(C)[C@H]3CC[C@]12C [UDCA, ursodeoxycholic acid]
solubility in water: practically insoluble
